Assays:
[1] = test system: RAW264.7 murine macrophages; conditions: cited from earlier work
collagenase = conditions: in vitro; cited from earlier work
[2] = test system: adjuvant-induced arthritis; conditions: daily intraperitoneal doses, 50 mg/kg; cited from earlier work
[3] = test system: prostaglandin E2 (PGE2) production by human THP-1 macrophages; experiment: LPS-stimulated PGE2 production by THP-1 macrophages (LC-MS/MS); type: cell-based
Text: (§1) In addition to the inhibition of released collagenases, PCG is capable of suppressing the biosynthesis of inflammatory mediators that play important roles in the pathogenesis of OA. Such chondroprotective properties were investigated using THP-1 monocytes that had been differentiated into macrophages. THP-1 is a human leukemia monocytic cell line. THP-1 monocytes were expanded by suspension culture in RPMI 1640 medium supplemented with 10% FBS and 1% antibiotic-antimycotic solution. They were differentiated into macrophages by adding PMA to a final concentration of 20 nM and transferring them to monolayer culture for 72 h.^13 Inflammation was then induced by treatment with 1 μg/ml LPS. PCG was first dissolved at 5 mM in complete culture medium. One hour after LPS stimulation, cells were treated with PCG at final concentrations of 4, 20, 100, and 500 μM. Culture supernatant was collected 24 h later and IL-1β quantified using ELISA, with results expressed as a percentage of the unstimulated control.
In addition to IL-1β, prostaglandin E2 (PGE2) in the culture supernatants was quantified using mass spectrometry. […] The residues were then reconstituted in 100 μL of methanol and analyzed by liquid chromatography with tandem mass spectrometry (LC-MS/MS), as previously described.^13

type 2 collagenase = experiment: Inhibition of collagenase-mediated cartilage degradation (pig cartilage disks, residual mass); type: biochemical
Protocol: The stability of PCG within a PLGA implant was examined by determining the ability of released PCG to inhibit collagenase-mediated cartilage degradation. Pig stifle (knee) joints were obtained from a local meat processor and full-thickness, cylindrical disks of articular cartilage (5 mm diameter) were harvested from the distal femurs. The disks were freeze-dried, weighed, and placed in Dulbecco's Modified Eagle Medium (DMEM) containing 0.0025% type 2 collagenase with and without 100 μM PCG (n=12 disks per group). Samples were incubated at 37° C. under gentle orbital shaking. At 3, 6, 9, and 12 days of incubation, three disks from each group were rinsed in distilled water, freeze-dried and weighed again, while the rest were allowed to continue incubation after adding fresh collagenase. The same experiment was repeated using implants made with 20% PLGA (50:50), NMP/BB 90/10, and 0 or 32 mg PCG per gram total implant weight (n=12 per group). Implants were formed in microcentrifuge tubes by pipetting 100 μl of the solution into distilled water. One hour later the water was replaced by the collagenase solution. Custom 3D-printed baskets were used to suspend the cartilage disks in the collagenase just above the implants. Disks were collected and weighed at the same 3-day intervals, with replacement of the collagenase solution each time. PCG concentration in the spent collagenase solution was determined by measuring absorbance at 373 nm and comparing to a standard curve generated from serial dilutions of PCG dissolved directly into DMEM. For both experiments, data are reported as residual mass of cartilage (final weight/initial weight). The overall effect of PCG was analyzed by two-way ANOVA with treatment and time as factors. Statistically significant effects of PCG at each time point were determined by independent t-test (equal variances not assumed).

[4] = 6% w/w PCG-containing diet for 37 days; cited from earlier work
[5] = test system: monoiodoacetate-induced model of OA; conditions: cited from earlier work
[6] = test system: IL-1β production by human THP-1 macrophages; experiment: LPS-stimulated IL-1β production by THP-1 macrophages (ELISA); type: cell-based
Text: as §1

collagen type II = collagen type II (Homo sapiens, UniProt P02458); conditions: non-covalent; cited from earlier work
Sequence of collagen type II (P02458 182-1241 limits assumed): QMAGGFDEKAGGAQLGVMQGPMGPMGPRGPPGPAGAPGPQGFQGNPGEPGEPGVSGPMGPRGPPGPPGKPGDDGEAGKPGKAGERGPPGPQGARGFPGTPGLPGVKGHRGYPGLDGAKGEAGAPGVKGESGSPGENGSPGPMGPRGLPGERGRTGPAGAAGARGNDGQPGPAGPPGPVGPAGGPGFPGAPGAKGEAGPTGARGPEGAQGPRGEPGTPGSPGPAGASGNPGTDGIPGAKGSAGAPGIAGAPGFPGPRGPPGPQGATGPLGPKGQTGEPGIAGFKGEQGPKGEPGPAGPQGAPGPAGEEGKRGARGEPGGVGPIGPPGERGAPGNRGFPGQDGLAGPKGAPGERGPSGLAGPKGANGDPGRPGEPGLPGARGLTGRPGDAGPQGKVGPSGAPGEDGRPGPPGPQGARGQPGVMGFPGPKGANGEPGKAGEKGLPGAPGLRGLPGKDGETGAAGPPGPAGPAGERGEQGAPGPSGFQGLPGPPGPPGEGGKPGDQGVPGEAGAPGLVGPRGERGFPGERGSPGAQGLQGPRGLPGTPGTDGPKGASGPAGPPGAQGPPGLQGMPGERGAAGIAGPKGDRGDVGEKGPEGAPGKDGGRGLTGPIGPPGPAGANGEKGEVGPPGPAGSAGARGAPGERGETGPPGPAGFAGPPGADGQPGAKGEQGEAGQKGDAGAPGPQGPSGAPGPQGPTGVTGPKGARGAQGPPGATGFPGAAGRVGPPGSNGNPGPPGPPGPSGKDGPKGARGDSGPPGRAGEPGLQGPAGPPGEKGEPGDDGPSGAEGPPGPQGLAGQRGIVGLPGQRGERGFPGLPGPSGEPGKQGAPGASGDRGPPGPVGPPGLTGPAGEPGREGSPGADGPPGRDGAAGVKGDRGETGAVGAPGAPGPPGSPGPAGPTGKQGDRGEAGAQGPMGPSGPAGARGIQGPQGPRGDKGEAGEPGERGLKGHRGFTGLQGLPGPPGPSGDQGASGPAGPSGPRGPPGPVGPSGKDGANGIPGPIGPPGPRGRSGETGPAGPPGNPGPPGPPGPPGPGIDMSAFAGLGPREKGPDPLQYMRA

[7] = test system: murine monocyte/macrophage-like cells; conditions: dose-dependent; cited from earlier work
[8] = Solvent screening for dissolving PCG; type: physicochemical
Protocol: The present inventor has developed a suitable in situ forming implant for sustained delivery of PCG. Polycarbonate, poly(lactic acid), and poly(lactide-co-glycolide) (PLGA) were dissolved in various solvents and screened for combinations that could also dissolve punicalagin and release it gradually from an implant formed in situ. PLGA emerged as the polymer that offered the best opportunity for the tuning of PCG release kinetics. Systems composed of PLGA and PCG dissolved in N-methyl-2-pyrrolidone (NMP) and/or benzyl alcohol (BA) consistently formed solid or hydrogel implants. […] Thus, one aspect of this invention is the characterization of PLGA in situ forming implants (originating from solutions containing NMP, BA, and BB) with respect to PCG stability and release kinetics.

fibroblast synoviocytes = conditions: cited from earlier work

SMILES: O=C1O[C@H]2[C@@H]3OC(=O)c4cc(O)c(O)c(O)c4-c4c(O)c(O)c5oc(=O)c6c(c(O)c(O)c7oc(=O)c4c5c76)-c4c(cc(O)c(O)c4O)C(=O)OC[C@H]3OC(O)[C@@H]2OC(=O)c2cc(O)c(O)c(O)c2-c2c1cc(O)c(O)c2O (mixture of isomers) [PCG, punicalagin]
- LPS-induced production of IL-1β [1]: attenuated
- LPS-induced production of PGE2 [1]: attenuated
- collagenase enzymatic activity (collagenase): inhibit its enzymatic activity
- paw edema [2]: significantly reduced paw edema
- attenuation of LPS-stimulated production of PGE2 ([3]; PCG 500 μM): approximately 85%
- decrease in PGE2 production ([3]; PCG in the range of 4-100 μM): about 35%
- cartilage mass loss (type 2 collagenase; 100 μM PCG added directly, 12 days, 0.0025% type 2 collagenase): about 55%
- collagenase-mediated degradation of cartilage (type 2 collagenase; added directly to collagenase solution or released from an ISI): significantly inhibited
- stability of PCG within PLGA ISI (type 2 collagenase; judged by collagenase inhibition of released PCG): at least 12 days
- systemic toxicity [4]: no systemic toxicity
- systemic toxicity (histology of major organs) ([5]; intraarticular PCG study): no evidence of systemic toxicity
- erosion of cartilage compared to saline control ([5]; semi-weekly intraarticular injections, 9.2 mM PCG solution): less overall erosion of cartilage
- LPS-stimulated IL-1β production ([6]; PCG 4 μM, added 1 h after 1 μg/ml LPS, supernatant at 24 h): return to the unstimulated control level
- LPS-stimulated IL-1β production ([6]; PCG 20 μM and above): suppression of practically all IL-1β synthesis
- binding to collagen type II (collagen type II): high affinity
- lipopolysaccharide-stimulated production of IL-6 [7]: suppressed
- lipopolysaccharide-stimulated production of nitric oxide (NO) [7]: suppressed
- lipopolysaccharide-stimulated production of prostaglandin E2 (PGE2) [7]: suppressed
- solubility of PCG in benzyl benzoate (BB) [8]: did not dissolve
- TNF-α induced expression of IL-1β (fibroblast synoviocytes): reduce
- TNF-α induced expression of IL-6 (fibroblast synoviocytes): reduce
- TNF-α induced expression of MMP-13 (fibroblast synoviocytes): reduce
